Data reported in patent US20260053811A1, “METHODS OF TREATING HYPERTENSION IN OBESE SUBJECTS” (Mineralys Therapeutics, Inc., priority 2022, published 2026).

Test system: hypertensive subjects
Assay: Adverse events (TEAEs, SAEs, AESI, study drug discontinuation, dose modification);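 also: counts of spontaneously reported adverse events in the Safety Analysis Set, subjects grouped by treatment actually received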
Assay type: in vivo, human
Text: In analyses performed on the Safety Analysis Set, subjects will be analyzed according to their actual treatment received.

`CC(=O)N[C@H]1CC[C@H](NC(=O)CN2CCN(c3nncc(-c4ccc(C)cc4)n3)CC2)CC1` [Compound A HBr] was tested, and the “Dose titration: Hyperkalemia, subjects n (%)” value (100mg QD Pooled (N 60)) was 2 (3.3%), the “Dose titration: Hyponatremia, subjects n (%)” value (100mg QD Pooled (N 60)) was 1 (1.7%) and the “Dose titration: Other possibly related, subjects n (%)” value (100mg QD Pooled (N 60)) was 0. For the same compound, the “Dose titration: Other unrelated, subjects n (%)” value (100mg QD Pooled (N 60)) was 0, the “Study drug discontinuation: Hyperkalemia, subjects n (%)” value (100mg QD Pooled (N 60)) was 2 (3.3%) and the “Study drug discontinuation: Hyponatremia, subjects n (%)” value (100mg QD Pooled (N 60)) was 1 (1.7%). The “Study drug discontinuation: Hypotension, subjects n (%)” value (100mg QD Pooled (N 60)) was 2 (3.3%), the “Study drug discontinuation: Other possibly related, subjects n (%)” value (100mg QD Pooled (N 60)) was 1 (1.7%) and the “Study drug discontinuation: Other unrelated, subjects n (%)” value (100mg QD Pooled (N 60)) was 4 (6.7%). For the same compound, the “Subjects with TEAE resulting in dose modification” value (Part 1) was 24, the “Dose titration: Hyperkalemia, subjects n (%)” value (Part 1 100mg QD (N 29)) was 1 (3.4%) and the “Dose titration: Hyponatremia, subjects n (%)” value (Part 1 100mg QD (N 29)) was 0. For the same compound, the “Dose titration: Other possibly related, subjects n (%)” value (Part 1 100mg QD (N 29)) was 0, the “Dose titration: Other unrelated, subjects n (%)” value (Part 1 100mg QD (N 29)) was 0 and the “Study drug discontinuation: Hyperkalemia, subjects n (%)” value (Part 1 100mg QD (N 29)) was 2 (6.9%). For the same compound, the “Study drug discontinuation: Hyponatremia, subjects n (%)” value (Part 1 100mg QD (N 29)) was 0, the “Study drug discontinuation: Hypotension, subjects n (%)” value (Part 1 100mg QD (N 29)) was 1 (3.4%) and the “Study drug discontinuation: Other possibly related, subjects n (%)” value (Part 1 100mg QD (N 29)) was 1 (3.4%). For the same compound, the “Study drug discontinuation: Other unrelated, subjects n (%)” value (Part 1 100mg QD (N 29)) was 3 (6.0%), the “On-treatment TEAE: Blood and lymphatic system disorders” value (Part 1, 12.5 mg BID (N = 22)) was 0 n (%) and the “On-treatment TEAE: Blood and lymphatic system disorders, Mild” value (Part 1, 12.5 mg BID (N = 22)) was 0 n (%). For the same compound, the “On-treatment TEAE: Blood creatinine increased” value (Part 1, 12.5 mg BID (N = 22)) was 0 n (%), the “On-treatment TEAE: Blood creatinine increased, Mild” value (Part 1, 12.5 mg BID (N = 22)) was 0 n (%) and the “On-treatment TEAE: Cardiac disorders” value (Part 1, 12.5 mg BID (N = 22)) was 1 (4.5) n (%). The “On-treatment TEAE: Cortisol decreased” value (Part 1, 12.5 mg BID (N = 22)) was 2 (9.1) n (%), the “On-treatment TEAE: Cortisol decreased, Mild” value (Part 1, 12.5 mg BID (N = 22)) was 2 (9.1) n (%) and the “On-treatment TEAE: Dizziness” value (Part 1, 12.5 mg BID (N = 22)) was 0 n (%). For the same compound, the “On-treatment TEAE: Gastrointestinal disorders” value (Part 1, 12.5 mg BID (N = 22)) was 0 n (%), the “On-treatment TEAE: Gastrointestinal disorders, Mild” value (Part 1, 12.5 mg BID (N = 22)) was 0 n (%) and the “On-treatment TEAE: General disorders and administration site conditions” value (Part 1, 12.5 mg BID (N = 22)) was 2 (9.1) n (%). The “On-treatment TEAE: General disorders and administration site conditions, Mild” value (Part 1, 12.5 mg BID (N = 22)) was 1 (4.5) n (%), the “On-treatment TEAE: Glomerular filtration rate decreased” value (Part 1, 12.5 mg BID (N = 22)) was 3 (13.6) n (%) and the “On-treatment TEAE: Glomerular filtration rate decreased, Mild” value (Part 1, 12.5 mg BID (N = 22)) was 3 (13.6) n (%). For the same compound, the “On-treatment TEAE: Headache” value (Part 1, 12.5 mg BID (N = 22)) was 0 n (%), the “On-treatment TEAE: Headache, Mild” value (Part 1, 12.5 mg BID (N = 22)) was 0 n (%) and the “On-treatment TEAE: Hyperkalaemia” value (Part 1, 12.5 mg BID (N = 22)) was 5 (22.7) n (%). The “On-treatment TEAE: Hyperkalaemia, Mild” value (Part 1, 12.5 mg BID (N = 22)) was 4 (18.2) n (%), the “On-treatment TEAE: Hyperkalaemia, Moderate” value (Part 1, 12.5 mg BID (N = 22)) was 1 (4.5) n (%) and the “On-treatment TEAE: Hyperkalaemia, Severe” value (Part 1, 12.5 mg BID (N = 22)) was 0 n (%). For the same compound, the “On-treatment TEAE: Hypertension” value (Part 1, 12.5 mg BID (N = 22)) was 0 n (%), the “On-treatment TEAE: Hypertension, Moderate” value (Part 1, 12.5 mg BID (N = 22)) was 0 n (%) and the “On-treatment TEAE: Infections and infestations” value (Part 1, 12.5 mg BID (N = 22)) was 1 (4.5) n (%). The “On-treatment TEAE: Infections and infestations, Mild” value (Part 1, 12.5 mg BID (N = 22)) was 0 n (%), the “On-treatment TEAE: Infections and infestations, Moderate” value (Part 1, 12.5 mg BID (N = 22)) was 1 (4.5) n (%) and the “On-treatment TEAE: Investigations” value (Part 1, 12.5 mg BID (N = 22)) was 6 (27.3) n (%). For the same compound, the “On-treatment TEAE: Investigations, Mild” value (Part 1, 12.5 mg BID (N = 22)) was 5 (22.7) n (%), the “On-treatment TEAE: Investigations, Moderate” value (Part 1, 12.5 mg BID (N = 22)) was 1 (4.5) n (%) and the “On-treatment TEAE: Metabolism and nutrition disorders” value (Part 1, 12.5 mg BID (N = 22)) was 5 (22.7) n (%). The “On-treatment TEAE: Metabolism and nutrition disorders, Mild” value (Part 1, 12.5 mg BID (N = 22)) was 4 (18.2) n (%), the “On-treatment TEAE: Metabolism and nutrition disorders, Moderate” value (Part 1, 12.5 mg BID (N = 22)) was 1 (4.5) n (%) and the “On-treatment TEAE: Nervous system disorders” value (Part 1, 12.5 mg BID (N = 22)) was 1 (4.5) n (%). For the same compound, the “On-treatment TEAE: Nervous system disorders, Mild” value (Part 1, 12.5 mg BID (N = 22)) was 1 (4.5) n (%), the “On-treatment TEAE: Orthostatic hypotension” value (Part 1, 12.5 mg BID (N = 22)) was 1 (4.5) n (%) and the “On-treatment TEAE: Orthostatic hypotension, Mild” value (Part 1, 12.5 mg BID (N = 22)) was 1 (4.5) n (%). For the same compound, the “On-treatment TEAE: Psychiatric disorders” value (Part 1, 12.5 mg BID (N = 22)) was 1 (4.5) n (%), the “On-treatment TEAE: Psychiatric disorders, Moderate” value (Part 1, 12.5 mg BID (N = 22)) was 1 (4.5) n (%) and the “On-treatment TEAE: Urinary tract infection” value (Part 1, 12.5 mg BID (N = 22)) was 0 n (%). For the same compound, the “On-treatment TEAE: Urinary tract infection, Mild” value (Part 1, 12.5 mg BID (N = 22)) was 0 n (%), the “On-treatment TEAE: Vascular disorders” value (Part 1, 12.5 mg BID (N = 22)) was 2 (9.1) n (%) and the “On-treatment TEAE: Vascular disorders, Mild” value (Part 1, 12.5 mg BID (N = 22)) was 2 (9.1) n (%). For the same compound, the “On-treatment TEAE: Vascular disorders, Moderate” value (Part 1, 12.5 mg BID (N = 22)) was 0 n (%), the “On-treatment TEAE: any, Mild” value (Part 1, 12.5 mg BID (N = 22)) was 8 (36.4) n (%) and the “On-treatment TEAE: any, Moderate” value (Part 1, 12.5 mg BID (N = 22)) was 5 (22.7) n (%). The “On-treatment TEAE: any, Severe” value (Part 1, 12.5 mg BID (N = 22)) was 0 n (%), the “Subjects with any On-treatment TEAEs leading to withdrawal from study drug” value (Part 1, 12.5 mg BID (N = 22)) was 1 (4.5) n (%) and the “TEAE leading to permanent discontinuation from study drug: Activated partial thromboplastin time prolonged” value (Part 1, 12.5 mg BID (N = 22)) was 0 n (%). The “TEAE leading to permanent discontinuation from study drug: Cardiac disorders” value (Part 1, 12.5 mg BID (N = 22)) was 0 n (%), the “TEAE leading to permanent discontinuation from study drug: Coronary artery disease” value (Part 1, 12.5 mg BID (N = 22)) was 0 n (%) and the “TEAE leading to permanent discontinuation from study drug: Dizziness” value (Part 1, 12.5 mg BID (N = 22)) was 0 n (%). The “TEAE leading to permanent discontinuation from study drug: Hyperkalaemia” value (Part 1, 12.5 mg BID (N = 22)) was 0 n (%), the “TEAE leading to permanent discontinuation from study drug: Hypertension” value (Part 1, 12.5 mg BID (N = 22)) was 0 n (%) and the “TEAE leading to permanent discontinuation from study drug: Hypotension” value (Part 1, 12.5 mg BID (N = 22)) was 0 n (%). For the same compound, the “TEAE leading to permanent discontinuation from study drug: Investigations” value (Part 1, 12.5 mg BID (N = 22)) was 0 n (%), the “TEAE leading to permanent discontinuation from study drug: Metabolism and nutrition disorders” value (Part 1, 12.5 mg BID (N = 22)) was 0 n (%) and the “TEAE leading to permanent discontinuation from study drug: Nervous system disorders” value (Part 1, 12.5 mg BID (N = 22)) was 0 n (%). For the same compound, the “TEAE leading to permanent discontinuation from study drug: Orthostatic hypotension” value (Part 1, 12.5 mg BID (N = 22)) was 1 (4.5) n (%), the “TEAE leading to permanent discontinuation from study drug: Vascular disorders” value (Part 1, 12.5 mg BID (N = 22)) was 1 (4.5) n (%) and the “On-treatment TEAE: Blood and lymphatic system disorders” value (Part 1, 12.5 mg QD (N = 23)) was 0 n (%). For the same compound, the “On-treatment TEAE: Blood and lymphatic system disorders, Mild” value (Part 1, 12.5 mg QD (N = 23)) was 0 n (%), the “On-treatment TEAE: Blood creatinine increased” value (Part 1, 12.5 mg QD (N = 23)) was 0 n (%) and the “On-treatment TEAE: Blood creatinine increased, Mild” value (Part 1, 12.5 mg QD (N = 23)) was 0 n (%). For the same compound, the “On-treatment TEAE: Cardiac disorders” value (Part 1, 12.5 mg QD (N = 23)) was 2 (8.7) n (%), the “On-treatment TEAE: Cortisol decreased” value (Part 1, 12.5 mg QD (N = 23)) was 0 n (%) and the “On-treatment TEAE: Cortisol decreased, Mild” value (Part 1, 12.5 mg QD (N = 23)) was 0 n (%). The “On-treatment TEAE: Dizziness” value (Part 1, 12.5 mg QD (N = 23)) was 1 (4.3) n (%), the “On-treatment TEAE: Gastrointestinal disorders” value (Part 1, 12.5 mg QD (N = 23)) was 2 (8.7) n (%) and the “On-treatment TEAE: Gastrointestinal disorders, Mild” value (Part 1, 12.5 mg QD (N = 23)) was 1 (4.3) n (%). For the same compound, the “On-treatment TEAE: General disorders and administration site conditions” value (Part 1, 12.5 mg QD (N = 23)) was 1 (4.3) n (%), the “On-treatment TEAE: General disorders and administration site conditions, Mild” value (Part 1, 12.5 mg QD (N = 23)) was 0 n (%) and the “On-treatment TEAE: Glomerular filtration rate decreased” value (Part 1, 12.5 mg QD (N = 23)) was 1 (4.3) n (%). For the same compound, the “On-treatment TEAE: Glomerular filtration rate decreased, Mild” value (Part 1, 12.5 mg QD (N = 23)) was 1 (4.3) n (%), the “On-treatment TEAE: Headache” value (Part 1, 12.5 mg QD (N = 23)) was 0 n (%) and the “On-treatment TEAE: Headache, Mild” value (Part 1, 12.5 mg QD (N = 23)) was 0 n (%). The “On-treatment TEAE: Hyperkalaemia” value (Part 1, 12.5 mg QD (N = 23)) was 6 (26.1) n (%), the “On-treatment TEAE: Hyperkalaemia, Mild” value (Part 1, 12.5 mg QD (N = 23)) was 4 (17.4) n (%) and the “On-treatment TEAE: Hyperkalaemia, Moderate” value (Part 1, 12.5 mg QD (N = 23)) was 1 (4.3) n (%). The “On-treatment TEAE: Hyperkalaemia, Severe” value (Part 1, 12.5 mg QD (N = 23)) was 1 (4.3) n (%), the “On-treatment TEAE: Hypertension” value (Part 1, 12.5 mg QD (N = 23)) was 2 (8.7) n (%) and the “On-treatment TEAE: Hypertension, Moderate” value (Part 1, 12.5 mg QD (N = 23)) was 1 (4.3) n (%). For the same compound, the “On-treatment TEAE: Infections and infestations” value (Part 1, 12.5 mg QD (N = 23)) was 3 (13.0) n (%) and the “On-treatment TEAE: Infections and infestations, Mild” value (Part 1, 12.5 mg QD (N = 23)) was 3 (13.0) n (%).
